In ChEMBL document CHEMBL1201862, “PubChem BioAssay data set” (2004) one finds EC50, IC50 and AC50 data, which are given here for 6 compounds.

Active and inactive are the calls of the source.

The subject of one test is Streptococcus. Kind of test: GAS UMAA2166 growth inhibition – luminescence, BacTiterGlo, counter-screen for streptokinase expression inhibitor project, dose response (AID 1915).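 Further: potency for reduction of bacterial viability or growth.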 The test is classed as functional, organism-based.
Test [1] deals with T1, Corticotropin-releasing factor receptor 2/Corticotropin-releasing factor-binding protein (Homo sapiens, UniProt P24387+Q13324).
T1 sequence (Q13324 whole entry): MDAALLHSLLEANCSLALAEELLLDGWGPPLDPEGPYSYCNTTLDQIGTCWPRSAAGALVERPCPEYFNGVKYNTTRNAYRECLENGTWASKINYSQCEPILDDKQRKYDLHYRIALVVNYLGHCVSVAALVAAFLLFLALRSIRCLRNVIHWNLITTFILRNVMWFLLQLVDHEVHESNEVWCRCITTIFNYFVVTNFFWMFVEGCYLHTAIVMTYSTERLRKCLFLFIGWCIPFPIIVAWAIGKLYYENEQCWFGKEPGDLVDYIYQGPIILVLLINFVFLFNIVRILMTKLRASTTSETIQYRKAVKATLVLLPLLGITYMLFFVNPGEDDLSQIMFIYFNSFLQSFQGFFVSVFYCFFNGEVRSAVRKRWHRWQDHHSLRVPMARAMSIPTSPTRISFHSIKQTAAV
T1 sequence (P24387 whole entry): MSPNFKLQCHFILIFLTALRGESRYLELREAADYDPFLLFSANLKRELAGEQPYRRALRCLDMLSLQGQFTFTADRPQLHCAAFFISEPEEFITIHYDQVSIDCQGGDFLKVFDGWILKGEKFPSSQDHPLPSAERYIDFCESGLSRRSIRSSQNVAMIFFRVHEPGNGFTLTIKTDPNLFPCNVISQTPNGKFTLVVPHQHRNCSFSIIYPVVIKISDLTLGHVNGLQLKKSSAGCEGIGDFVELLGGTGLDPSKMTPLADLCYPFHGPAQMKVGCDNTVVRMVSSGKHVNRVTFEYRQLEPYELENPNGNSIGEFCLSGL
The test is described as follows: activators of CRF receptor 2 with binding protein – uHTS hits, confirmation (AID 602473). The test is classed as functional. To be noted: read-out: EC50_Mean.

The target in a further test is T2, Streptokinase A (Streptococcus pyogenes serotype M1, UniProt P10520).
T2 sequence (P10520 whole entry): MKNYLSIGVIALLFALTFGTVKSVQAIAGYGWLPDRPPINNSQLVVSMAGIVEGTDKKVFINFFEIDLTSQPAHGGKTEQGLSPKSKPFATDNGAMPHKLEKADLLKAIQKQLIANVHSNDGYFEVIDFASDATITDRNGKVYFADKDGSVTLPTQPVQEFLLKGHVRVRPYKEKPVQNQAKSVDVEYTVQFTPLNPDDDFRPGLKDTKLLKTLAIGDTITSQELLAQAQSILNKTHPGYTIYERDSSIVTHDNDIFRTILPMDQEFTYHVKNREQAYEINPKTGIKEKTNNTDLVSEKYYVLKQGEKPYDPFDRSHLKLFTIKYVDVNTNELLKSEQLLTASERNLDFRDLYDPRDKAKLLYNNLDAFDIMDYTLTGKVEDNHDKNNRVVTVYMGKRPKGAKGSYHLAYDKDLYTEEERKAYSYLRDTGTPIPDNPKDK
The test is described as follows: viability-normalized secreted streptokinase activity reduction – plasminogen activation absorbance, OD405, dose response (AID 1914).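 Further: secreted streptokinase activity via plasminogen activation per viability signal from cell pellet.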 The test is classed as functional, Streptococcus pyogenes M1 GAS.

Another test has as its target T3, Cysteine protease ATG4B (Homo sapiens, UniProt Q9Y4P1).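 Further: Fluorescence-based dose-response confirmation assay measuring inhibition of ATG4B activity.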
T3 sequence (Q9Y4P1 whole entry): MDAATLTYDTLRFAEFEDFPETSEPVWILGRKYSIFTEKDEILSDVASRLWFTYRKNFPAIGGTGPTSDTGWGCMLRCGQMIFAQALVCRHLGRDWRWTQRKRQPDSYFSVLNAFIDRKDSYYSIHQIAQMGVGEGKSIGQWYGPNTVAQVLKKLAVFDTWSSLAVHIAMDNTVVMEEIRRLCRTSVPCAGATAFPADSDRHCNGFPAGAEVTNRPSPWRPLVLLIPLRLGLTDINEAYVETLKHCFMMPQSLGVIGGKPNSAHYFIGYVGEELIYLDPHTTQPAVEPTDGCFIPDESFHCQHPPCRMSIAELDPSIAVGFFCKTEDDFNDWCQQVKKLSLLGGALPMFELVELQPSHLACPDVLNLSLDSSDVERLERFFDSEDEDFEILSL
The test is classed as functional.

In test [2] the test system is Streptococcus sp. 'group A'. The test is described as follows: Streptococcus pyogenes SK(-)GAS viability under kanamycin – luminescence, BacTiterGlo, confirmation, counter-screen for streptokinase expression inhibitor project, dose response (AID 1900). The format is functional, organism-based.
The target of another test is Phospholipase A2 (Homo sapiens, UniProt P04054). The format is functional.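 Further: confirmatory dose-response counterscreen on phospholipase A2, testing hits that came from an ultra-high-throughput screen for ATG4B inhibitors.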
Phospholipase A2, sequence (P04054 whole entry): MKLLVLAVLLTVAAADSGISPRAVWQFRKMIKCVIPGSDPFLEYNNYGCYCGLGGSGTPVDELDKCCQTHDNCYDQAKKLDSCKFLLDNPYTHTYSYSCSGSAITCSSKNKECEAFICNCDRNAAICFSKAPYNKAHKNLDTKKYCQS
The target in test [3] is T4, Endoribonuclease toxin MazF (Escherichia coli K-12, UniProt P0AE70).
T4 sequence (P0AE70 whole entry): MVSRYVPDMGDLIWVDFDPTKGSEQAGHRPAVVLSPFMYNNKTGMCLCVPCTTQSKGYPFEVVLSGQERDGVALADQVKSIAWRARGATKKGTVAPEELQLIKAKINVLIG
Kind of test: substrate-only fluorescence increase artefacts – biochemical, single-stranded RNase substrate, counter-screen for MazEF activator project, dose response (AID 588502). The test is classed as functional. In general terms: Counterscreens check selectivity or assay interference.

Test [4] deals with T4, Endoribonuclease toxin MazF. Kind of test: activation of MazEF endoribonuclease cleavage – biochemical, fluorescence, single-stranded RNA substrate, uHTS hits, dose response (AID 588481). The test is classed as functional.
A further test has as its target Large T antigen (Simian virus 40, UniProt P03070). The format is functional, Betapolyomavirus macacae.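 Further: Confirmatory-stage PubChem screen for compounds that inhibit SV40 T antigen.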
Test [5] concerns the target T5, Zinc finger protein mex-5 (Caenorhabditis elegans, UniProt Q9XUB2).
T5 sequence (Q9XUB2 whole entry): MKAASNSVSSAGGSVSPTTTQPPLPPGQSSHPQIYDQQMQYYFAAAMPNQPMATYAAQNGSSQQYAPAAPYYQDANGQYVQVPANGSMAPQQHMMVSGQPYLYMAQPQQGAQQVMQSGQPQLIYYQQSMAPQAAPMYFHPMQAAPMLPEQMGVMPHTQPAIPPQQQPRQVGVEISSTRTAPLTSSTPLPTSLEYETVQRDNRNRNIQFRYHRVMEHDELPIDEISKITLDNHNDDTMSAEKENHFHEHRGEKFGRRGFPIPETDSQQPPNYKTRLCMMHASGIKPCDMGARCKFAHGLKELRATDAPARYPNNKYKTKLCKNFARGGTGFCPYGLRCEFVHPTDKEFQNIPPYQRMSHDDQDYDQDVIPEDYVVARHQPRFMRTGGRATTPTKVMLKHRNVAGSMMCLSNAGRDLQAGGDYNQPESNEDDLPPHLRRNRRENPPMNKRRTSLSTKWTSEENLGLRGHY
Kind of test: potency of MEX-5 RNA-binding blockers – biochemical, C. elegans, fluorescence polarization, dose response (AID 1960). A general note: Fluorescence polarisation rises when a labelled molecule tumbles more slowly, as on binding a larger partner.

The target of test [6] is Heat shock protein HSP 90-alpha (Homo sapiens, UniProt P07900). The test is classed as functional, organism-based.
In the next test the target is Genome polyprotein (dengue virus type 2, UniProt P29990). Kind of test: flavivirus cap methylation enzyme inhibition – biochemical, confirmation dose response, primary screen (AID 588689). The format is functional.
Genome polyprotein, sequence (P29990 2492-3391 limits assumed): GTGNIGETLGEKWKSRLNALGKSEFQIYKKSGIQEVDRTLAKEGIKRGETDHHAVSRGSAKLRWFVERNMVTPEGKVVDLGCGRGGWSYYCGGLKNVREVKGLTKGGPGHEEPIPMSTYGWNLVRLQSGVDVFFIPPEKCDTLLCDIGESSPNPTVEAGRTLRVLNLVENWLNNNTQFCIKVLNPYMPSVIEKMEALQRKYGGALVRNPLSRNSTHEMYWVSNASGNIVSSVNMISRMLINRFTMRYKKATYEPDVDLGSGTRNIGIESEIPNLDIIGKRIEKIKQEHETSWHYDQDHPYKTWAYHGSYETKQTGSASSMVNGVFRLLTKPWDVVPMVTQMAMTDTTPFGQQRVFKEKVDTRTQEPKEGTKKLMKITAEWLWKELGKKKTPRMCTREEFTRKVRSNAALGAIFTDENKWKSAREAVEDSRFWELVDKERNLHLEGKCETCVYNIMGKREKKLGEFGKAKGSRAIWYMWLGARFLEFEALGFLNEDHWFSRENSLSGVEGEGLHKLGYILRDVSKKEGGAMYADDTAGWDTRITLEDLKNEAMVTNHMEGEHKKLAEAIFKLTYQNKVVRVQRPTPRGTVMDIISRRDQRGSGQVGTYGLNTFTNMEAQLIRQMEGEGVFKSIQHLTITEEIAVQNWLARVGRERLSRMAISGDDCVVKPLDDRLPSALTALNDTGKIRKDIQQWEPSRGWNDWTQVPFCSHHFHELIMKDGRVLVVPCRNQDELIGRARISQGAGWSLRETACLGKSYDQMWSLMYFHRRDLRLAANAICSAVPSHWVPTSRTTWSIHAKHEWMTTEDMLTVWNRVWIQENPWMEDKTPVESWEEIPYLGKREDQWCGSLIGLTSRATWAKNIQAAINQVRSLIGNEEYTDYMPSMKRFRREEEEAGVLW
Test [7] deals with T6, High affinity choline transporter 1 (Homo sapiens, UniProt Q9GZV3).
T6 sequence (Q9GZV3 whole entry): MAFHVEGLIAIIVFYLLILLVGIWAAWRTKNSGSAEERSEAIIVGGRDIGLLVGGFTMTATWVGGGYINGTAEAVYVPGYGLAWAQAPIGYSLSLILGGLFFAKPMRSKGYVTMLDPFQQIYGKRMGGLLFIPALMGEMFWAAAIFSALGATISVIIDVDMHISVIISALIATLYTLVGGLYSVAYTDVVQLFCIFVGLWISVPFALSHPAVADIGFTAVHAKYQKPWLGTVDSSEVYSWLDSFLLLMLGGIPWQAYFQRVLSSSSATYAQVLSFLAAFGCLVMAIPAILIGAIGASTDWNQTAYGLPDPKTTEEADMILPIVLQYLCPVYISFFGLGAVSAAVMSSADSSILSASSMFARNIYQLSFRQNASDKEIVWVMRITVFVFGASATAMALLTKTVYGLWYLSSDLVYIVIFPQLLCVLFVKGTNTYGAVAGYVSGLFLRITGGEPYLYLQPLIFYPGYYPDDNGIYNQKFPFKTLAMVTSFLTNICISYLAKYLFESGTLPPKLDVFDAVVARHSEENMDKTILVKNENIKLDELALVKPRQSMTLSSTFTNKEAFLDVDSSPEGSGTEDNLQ
The test is described as follows: human choline transporter blockers, potency – cell-based, 5-point CRC, membrane potential dye, dose response (AID 504840). The format is functional.

Test [8] in a line: fluconazole-exposed Candida albicans growth modulators – fluorescence, retest, confirmation (AID 2467). The format is functional, cell-based.
Test [9] addresses T6, High affinity choline transporter 1. Kind of test: human choline transporter blockers, potency – cell-based, 10-point CRC, membrane potential dye, dose response (AID 588401).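 Further: membrane potential dye fluorescence of choline-evoked depolarization via CHT.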 The format is functional.
A short description of test [10]: NIH-3T3 fibroblast cytotoxicity, dose response, cytotoxicity control, cell-based, fluorescence, Alamar Blue, secondary assay (AID 2327).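 Further: NIH-3T3 mouse fibroblasts cultured with fluconazole at 8 µg/mL.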 The test is classed as functional. In general terms: The colour change of resazurin is a common sign of viable cells or microbes.
Another test has as its target Prothrombin (Homo sapiens, UniProt P00734). The test is described as follows: Thrombin 1536 HTS Dose Response Confirmation. [Related pubchem assays: 1046 (Thrombin 1536 HTS; hits were confirmed in this assay)]. The format is functional.

Large T antigen, sequence (P03070 whole entry): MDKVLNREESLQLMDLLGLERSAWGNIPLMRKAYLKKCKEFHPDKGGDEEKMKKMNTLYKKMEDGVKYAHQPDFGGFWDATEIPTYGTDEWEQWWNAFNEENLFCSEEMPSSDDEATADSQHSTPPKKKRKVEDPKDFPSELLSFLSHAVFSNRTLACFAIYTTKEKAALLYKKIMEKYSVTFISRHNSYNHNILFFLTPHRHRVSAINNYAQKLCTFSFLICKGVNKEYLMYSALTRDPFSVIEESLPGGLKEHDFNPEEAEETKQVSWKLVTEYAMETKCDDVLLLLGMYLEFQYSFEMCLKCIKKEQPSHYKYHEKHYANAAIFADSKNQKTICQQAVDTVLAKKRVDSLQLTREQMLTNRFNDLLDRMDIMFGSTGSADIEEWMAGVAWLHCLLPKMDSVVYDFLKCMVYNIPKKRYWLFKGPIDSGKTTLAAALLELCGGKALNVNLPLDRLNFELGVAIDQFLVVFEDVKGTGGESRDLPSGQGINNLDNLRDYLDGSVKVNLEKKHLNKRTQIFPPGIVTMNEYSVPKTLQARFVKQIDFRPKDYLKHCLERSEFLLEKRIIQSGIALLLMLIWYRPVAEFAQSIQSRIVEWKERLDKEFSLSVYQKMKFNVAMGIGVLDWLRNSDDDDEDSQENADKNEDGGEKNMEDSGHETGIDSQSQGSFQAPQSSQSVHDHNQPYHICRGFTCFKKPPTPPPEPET

In the case of `CCC(CC)C1=NN2C(=N)/C(=C\c3cc(C)n(-c4cccc(C)c4)c3C)C(=O)N=C2S1`, the EC50 in the test on Streptococcus is 17.8 µM (active); in [1], 6.03 µM (active); on Streptokinase A, > 150 µM (not active); in [2] it was 7.3 µM (active). In addition, the IC50 (commonly the concentration that gives 50% inhibition) at Cysteine protease ATG4B is 15.7 µM (active); at Phospholipase A2 it was 0.975 µM (active).

`CC(=O)Nc1cccc(C(=O)/C=C/c2ccc(N(C)C)cc2)c1`: the EC50 in test [3] and in test [4] was > 99 µM (inactive) each time.

For the compound `Oc1c(Br)cc(Br)c(/C=N/n2c(S)nnc2-c2ccccc2)c1Br`, the IC50 on Large T antigen was 28.2 µM (active); on Cysteine protease ATG4B it was 7.7 µM (active); on Genome polyprotein, 17.9 µM (active); in test [7] it was 13.2 µM (active); at Phospholipase A2, 36.8 µM (inactive). For the same compound, in [5], the EC50 was 5.63 µM (active). Besides, in [6], the concentration at half-maximal activity (AC50) (commonly the concentration at which the activity in the assay is half-maximal) was 8.53 µM (active).

With `Nc1ncc(Br)cc1S(=O)(=O)Nc1cc(C(F)(F)F)cc(C(F)(F)F)c1`, the EC50 was 0.341 µM (active) in [8]; 19.9 µM (active) in the test on Streptococcus; 18.2 µM (active) in test [10]; 3.32 µM (active) on Streptokinase A; 6.6 µM (active) in test [2]. Also, the IC50 is 4.01 µM (active) in test [9], 8.94 µM (active) on Cysteine protease ATG4B, 9.12 µM (active) in test [7] and 8.69 µM (active) on Phospholipase A2.

Consider `O=C(O)c1cc([N+](=O)[O-])ccc1NCc1ccccc1Cl`, for which the IC50 against Prothrombin was > 50 µM (not active); on Cysteine protease ATG4B it was 11.9 µM (active); at Phospholipase A2 it was 9.55 µM (active).

Consider `Nc1nonc1-n1nnc(C(=O)N/N=C/c2ccc3c(c2)OCO3)c1CSc1ccccc1`, for which the EC50 in test [3] and in [4] was > 99 µM (inactive) each time.
